Results taken from patent publication US6750244B2, “Compounds active at a novel site on receptor-operated calcium channels useful for treatment of neurological disorders and diseases” (NPS Pharmaceuticals, Inc., priority 1993, dated 2004).
Where two headings read alike, the source gives them in different places.

Tests used:
[1] = test system: mean arterial blood pressure; settings: i.v.
dopamine uptake site = biological target: T1, dopamine uptake site (Cavia porcellus, UniProt H0WCX4); assay: Dopamine uptake binding assay: [3H]WIN-35,428 binding to guinea pig striatal membranes
T1 construct: from tissue; host or cells: guinea pig striatal membranes (per the assay title)
T1 sequence (H0WCX4 1-619): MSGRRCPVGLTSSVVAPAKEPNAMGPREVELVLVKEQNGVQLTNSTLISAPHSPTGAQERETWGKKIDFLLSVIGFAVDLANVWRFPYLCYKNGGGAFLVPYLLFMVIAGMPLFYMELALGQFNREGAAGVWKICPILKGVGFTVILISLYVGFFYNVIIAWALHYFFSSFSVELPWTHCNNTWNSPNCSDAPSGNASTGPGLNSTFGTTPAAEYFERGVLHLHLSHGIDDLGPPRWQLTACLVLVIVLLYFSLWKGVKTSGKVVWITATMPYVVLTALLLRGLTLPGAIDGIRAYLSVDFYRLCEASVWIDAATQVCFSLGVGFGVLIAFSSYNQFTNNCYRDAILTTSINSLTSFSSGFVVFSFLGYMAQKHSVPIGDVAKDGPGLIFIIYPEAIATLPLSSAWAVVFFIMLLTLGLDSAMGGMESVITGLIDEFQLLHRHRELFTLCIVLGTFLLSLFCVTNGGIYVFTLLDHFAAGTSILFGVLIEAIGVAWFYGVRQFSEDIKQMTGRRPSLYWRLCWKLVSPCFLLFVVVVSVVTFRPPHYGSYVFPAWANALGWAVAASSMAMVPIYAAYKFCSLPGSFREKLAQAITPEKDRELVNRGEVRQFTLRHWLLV

[2] = test system: maximal electroshock-induced seizures; assay: Maximal electroshock-induced seizures in rats; assay type: in vivo; settings: Rattus norvegicus, po, read-out: ED50, maximal electroshock-induced seizures
sound-induced seizures = assay: Sound-induced seizures in Frings mice (reflex epilepsy); assay type: in vivo; settings: Mus musculus, Frings mice
serotonin uptake site = biological target: T2, serotonin uptake site (Rattus norvegicus, UniProt P31652); assay: Serotonin uptake binding assay: [3H]citalopram binding to rat forebrain membranes
T2 construct: from tissue; host or cells: rat forebrain membranes (per the assay title)
T2 sequence (P31652 whole entry): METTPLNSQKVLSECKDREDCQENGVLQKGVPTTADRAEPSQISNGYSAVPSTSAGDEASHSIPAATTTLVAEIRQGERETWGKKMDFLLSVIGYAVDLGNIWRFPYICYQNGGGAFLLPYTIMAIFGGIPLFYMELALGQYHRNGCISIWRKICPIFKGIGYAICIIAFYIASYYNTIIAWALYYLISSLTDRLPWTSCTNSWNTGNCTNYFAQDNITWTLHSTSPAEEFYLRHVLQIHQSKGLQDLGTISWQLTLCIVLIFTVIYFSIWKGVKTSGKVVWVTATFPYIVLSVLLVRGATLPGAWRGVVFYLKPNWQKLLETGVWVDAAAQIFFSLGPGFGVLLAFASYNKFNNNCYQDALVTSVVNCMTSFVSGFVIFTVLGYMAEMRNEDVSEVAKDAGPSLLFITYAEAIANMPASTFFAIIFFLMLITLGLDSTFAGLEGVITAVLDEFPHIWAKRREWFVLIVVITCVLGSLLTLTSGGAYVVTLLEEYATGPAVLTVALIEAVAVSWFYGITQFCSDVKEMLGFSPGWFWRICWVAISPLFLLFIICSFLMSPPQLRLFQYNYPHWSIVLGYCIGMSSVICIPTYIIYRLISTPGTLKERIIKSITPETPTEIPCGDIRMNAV

motor performance = assay: Acute motor impairment (rotorod) in mice; settings: Frings mice, i.p.
Method: (§1) In this assay, Frings and CF1 mice were injected with test compound and placed on a knurled rod which rotated at a speed of 6 rpm. The ability of the mice to maintain equilibrium for long periods of time was determined; those mice that were unable to maintain equilibrium on the rotorod for 1 min in each of 3 trials were considered impaired.

in vivo = settings: Frings, mouse, in vivo, po
Method: as §1

thermal nociception [3] = assay type: in vivo, rats; settings: 25 mg/kg i.p.
Method: In this standard assay, the thermal nociceptive stimulus was 52° C. warm water with the latency to tail flick or withdrawal taken as the endpoint.

thermal nociception [4] = assay type: in vivo, rats; settings: 25 mg/kg i.p.; remark: listed apart in the source
Method: In these experiments, a 52° C. hot plate was used as the nociceptive stimulus.

[5] = test system: central muscarinic cholinergic receptor; assay type: binding, rat
[6] = biological target: T3, norepinephrine uptake site (Rattus norvegicus, UniProt Q63380); assay: Norepinephrine uptake binding assay: [3H]desipramine binding to rat cortical membranes
T3 construct: from tissue; host or cells: rat cortical membranes (per the assay title)
T3 sequence (Q63380 1-617): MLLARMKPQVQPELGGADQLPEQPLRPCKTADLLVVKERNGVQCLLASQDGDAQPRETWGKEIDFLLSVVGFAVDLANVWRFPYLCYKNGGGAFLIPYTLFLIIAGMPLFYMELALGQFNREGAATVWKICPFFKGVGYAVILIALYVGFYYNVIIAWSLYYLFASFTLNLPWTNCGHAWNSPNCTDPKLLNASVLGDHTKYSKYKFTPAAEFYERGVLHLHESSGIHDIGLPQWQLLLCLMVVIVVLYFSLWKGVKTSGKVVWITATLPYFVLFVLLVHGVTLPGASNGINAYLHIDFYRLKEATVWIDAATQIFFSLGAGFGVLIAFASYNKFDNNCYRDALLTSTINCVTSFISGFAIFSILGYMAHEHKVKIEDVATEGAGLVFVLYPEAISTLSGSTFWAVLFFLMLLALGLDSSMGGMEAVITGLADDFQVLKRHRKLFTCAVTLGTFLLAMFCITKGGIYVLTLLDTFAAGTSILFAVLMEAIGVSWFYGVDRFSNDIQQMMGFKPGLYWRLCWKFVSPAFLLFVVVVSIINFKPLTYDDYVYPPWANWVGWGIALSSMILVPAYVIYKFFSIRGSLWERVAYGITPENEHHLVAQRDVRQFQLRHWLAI

NMDA receptor = assay: Inhibition of NMDA/glycine-induced increases in intracellular calcium in cultured rat cerebellar granule cells (RCGC); assay type: cell-based; settings: NMDA/glycine-induced increases in intracellular calcium, cultured rat cerebellar granule cells; read-out: IC50 (μM) vs. NMDA
[7] = biological target: NMDA receptor-ionophore complex (site labeled by [3H]MK-801); assay: Inhibition of [3H]MK-801 binding in rat cortical/hippocampal washed membrane preparations; settings: read-out: IC50 (μM) vs. [3H]MK-801; rat cortical/hippocampal washed membranes
[8] = Motor toxicity (TD50) in rats; settings: rat, in vivo, po
focal ischemic stroke = assay: Rat model of focal ischemic stroke (vessel occlusion); assay type: in vivo, rats; settings: i.p. 2 mg/kg 30 min prior to vessel occlusion and 2 mg/kg 3 hr post-occlusion
PBQ-elicited writhing = assay type: in vivo; settings: 4 mg/kg i.p.
Method: In the first series of experiments, the animals were administered an unpleasant stimulus (2-phenyl-1,4-benzoquinone, PBQ) which elicits a writhing response (abdominal stretching). Typically, the number of writhes occurring in a 5 min observation period is recorded. […] Nonsteroidal antiinflammatory agents are likewise effective in this model.

## C[C@H](N)CC(c1cccc(F)c1)c1cccc(F)c1 [Compound 50, 3,3-bis(3-fluorophenyl)-1-methyl-1-propylamine]
[1]
  no significant cardiovascular activity in anesthetized rats at doses up to: up to 5 mg/kg
Dopamine uptake site; at 0.1 μM
  Monoamine uptake binding assays: dopamine uptake binding assay, percent block: 17% at
Dopamine uptake site; at 10 μM
  Monoamine uptake binding assays: dopamine uptake binding assay, percent block: 0.1^f93% at
[2]
  ED50: 28 mg/kg
sound-induced seizures; ip
  ED50: 2.7 mg/kg
sound-induced seizures; oral
  ED50: 9 mg/kg
Serotonin uptake site; at 0.1 μM
  Monoamine uptake binding assays: serotonin uptake binding assay, percent block: 10^g75% at
Serotonin uptake site; at 10 μM
  Monoamine uptake binding assays: serotonin uptake binding assay, percent block: 0.1^h97% at
Motor performance
  TD50 (motor impairment): 17.4 mg/kg
In vivo
  TD50: 18.9 mg/kg
Thermal nociception [3]
  analgesic activity, rat 48° C. tail flick test: no significant analgesic activity
Thermal nociception [4]
  analgesic activity, rat 52° C. hot plate test: no significant analgesic activity
[5]; at 0.1 μM
  Central muscarinic cholinergic receptor: percent block of [3H]QNB binding: 11% at
[5]; at 10 μM
  Central muscarinic cholinergic receptor: percent block of [3H]QNB binding: 0.184% at
[6]; at 0.1 μM
  Monoamine uptake binding assays: norepinephrine uptake binding assay, percent block: 10% at
[6]; at 10 μM
  Monoamine uptake binding assays: norepinephrine uptake binding assay, percent block: 0.1^g78% at
NMDA receptor
  IC50: 0.089 µM
[7]
  IC50: 0.762 µM
[8]
  TD50: 20 mg/kg
Focal ischemic stroke
  neuroprotectant activity in a rat model of focal ischemic stroke: significant neuroprotectant activity

## CN1CC[C@]23c4c5ccc(O)c4O[C@H]2[C@@H](O)C=C[C@H]3[C@H]1C5 [morphine, reference compound]
PBQ-elicited writhing
  block of the writhing response: 100%
